According to patent publication US12091411B2, “IRAK degraders and uses thereof” (Kymera Therapeutics, Inc., priority 2022, dated 2024):
Like-named read-outs stand apart in the source and are kept apart here.

Target: T1, IRAK4 (Homo sapiens, UniProt Q9NWZ3)
T1 construct: Degradation of IRAK4 in OCI-LY10 was quantitatively measured using Meso Scale Discovery technology; endogenous in cells; host or cells: OCI-LY10
T1 sequence (Q9NWZ3 1-460): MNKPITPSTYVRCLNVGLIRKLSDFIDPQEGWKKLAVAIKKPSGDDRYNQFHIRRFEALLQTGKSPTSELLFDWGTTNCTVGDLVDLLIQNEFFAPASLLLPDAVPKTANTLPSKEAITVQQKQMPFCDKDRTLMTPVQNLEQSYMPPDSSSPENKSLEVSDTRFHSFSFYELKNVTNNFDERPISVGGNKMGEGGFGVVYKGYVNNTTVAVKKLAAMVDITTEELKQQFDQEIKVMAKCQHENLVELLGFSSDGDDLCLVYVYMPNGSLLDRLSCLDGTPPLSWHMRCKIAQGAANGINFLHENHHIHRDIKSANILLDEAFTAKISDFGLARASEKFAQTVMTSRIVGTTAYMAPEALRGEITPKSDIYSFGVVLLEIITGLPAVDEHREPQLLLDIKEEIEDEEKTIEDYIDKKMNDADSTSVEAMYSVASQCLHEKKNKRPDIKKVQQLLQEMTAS
Experiment: IRAK4 MSD Degradation in OCI-LY10
Assay type: cell-based
Conditions: OCI-LY10 cells, MSD
In short: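 DC50, from a three-parameter logistic fit and reported as letter bins A (<0.01 μM), B, C, D (>0.2 μM or not tested), reflects IRAK4 loss measured by MSD electrochemiluminescence in OCI-LY10 lysates. Treatment: 8 doses, 1:3 steps, top 1 to 10 μM, 4 to 24 h, 37 °C.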

[1] = 4 hrs incubation, read-out: IRAK4 degradation in OCI-LY10 at 4 hrs: DC50
[2] = 24 hrs incubation, read-out: IRAK4 degradation in OCI-LY10 at 24 hrs: DC50

Structure (SMILES)	DC50 [1]	DC50 [2]
COC(C)(C)c1ccn2ncc(C(=O)Nc3cn([C@H]4CC[C@H](CN5CCN(CC#Cc6cccc7c6n(C)c(=O)n7C6CCC(=O)NC6=O)CC5)CC4)nc3C(F)F)c2n1 (stereo partly drawn) [I-220]	> 200 nM	> 200 nM
Cn1c(=O)n(C2CCC(=O)NC2=O)c2cccc(C#CCN3CCN(C[C@H]4CC[C@H](n5cc(NC(=O)c6cnn7ccc(N8CCCC8(C)C)nc67)c(C(F)F)n5)CC4)CC3)c21 (stereo partly drawn) [I-221]	> 200 nM	10 to 100 nM
Cn1c(=O)n(C2CCC(=O)NC2=O)c2cccc(C#CCN3CCN(C[C@H]4CC[C@H](n5cc(NC(=O)c6cnn7ccc(N8CCCC89CC9)nc67)c(C(F)F)n5)CC4)CC3)c21 (stereo partly drawn) [I-222]	> 200 nM	10 to 100 nM
Cn1c(=O)n(C2CCC(=O)NC2=O)c2cccc(C#CCN3CCN(C[C@H]4CC[C@H](n5cc(NC(=O)c6cnn7ccc(N8CCC(C)(C)C8)nc67)c(C(F)F)n5)CC4)CC3)c21 (stereo partly drawn) [I-223]	> 200 nM	10 to 100 nM
Cn1c(=O)n(C2CCC(=O)NC2=O)c2cccc(C#CCN3CCN(C[C@H]4CC[C@H](n5cc(NC(=O)c6cnn7ccc(N8CCC9(CC9)C8)nc67)c(C(F)F)n5)CC4)CC3)c21 (stereo partly drawn) [I-224]	> 200 nM	10 to 100 nM
Cn1c(=O)n(C2CCC(=O)NC2=O)c2cccc(C#CCN3CCN(C[C@H]4CC[C@H](n5cc(NC(=O)c6cnn7ccc(N8CC(C)(C)C8)nc67)c(C(F)F)n5)CC4)CC3)c21 (stereo partly drawn) [I-225]	> 200 nM	< 10 nM
Cn1c(=O)n(C2CCC(=O)NC2=O)c2cccc(C#CCN3CCN(C[C@H]4CC[C@H](n5cc(NC(=O)c6cnn7ccc(N8CC9(CC9)C8)nc67)c(C(F)F)n5)CC4)CC3)c21 (stereo partly drawn) [I-226]	> 200 nM	< 10 nM
Cn1c(=O)n(C2CCC(=O)NC2=O)c2cccc(C#CCN3CCN(C[C@H]4CC[C@H](n5cc(NC(=O)c6cnn7ccc(N8CCC(C)(C)CC8)nc67)c(C(F)F)n5)CC4)CC3)c21 (stereo partly drawn) [I-227]	> 200 nM	10 to 100 nM
Cn1c(=O)n(C2CCC(=O)NC2=O)c2cccc(C#CCN3CCN(C[C@H]4CC[C@H](n5cc(NC(=O)c6cnn7ccc(N8CCC9(CC8)CC9)nc67)c(C(F)F)n5)CC4)CC3)c21 (stereo partly drawn) [I-228]	> 200 nM	< 10 nM
Cn1c(=O)n(C2CCC(=O)NC2=O)c2cccc(C#CCN3CCN(C[C@H]4CC[C@H](n5cc(NC(=O)c6cnn7ccc(N8CCCC(C)(C)C8)nc67)c(C(F)F)n5)CC4)CC3)c21 (stereo partly drawn) [I-229]	> 200 nM	10 to 100 nM
Cn1c(=O)n(C2CCC(=O)NC2=O)c2cccc(C#CCN3CCN(C[C@H]4CC[C@H](n5cc(NC(=O)c6cnn7ccc(N8CCCCC8(C)C)nc67)c(C(F)F)n5)CC4)CC3)c21 (stereo partly drawn) [I-230]	> 200 nM	10 to 100 nM
Cn1c(=O)n(C2CCC(=O)NC2=O)c2cccc(C#CCOC3CCN(C[C@H]4CC[C@H](n5cc(NC(=O)c6ccn7ccc(N8C[C@H]9C[C@@H]8CO9)nc67)c(C(F)F)n5)CC4)CC3)c21 (stereo partly drawn) [I-231]	> 200 nM	> 200 nM
Cn1c(=O)n(C2CCC(=O)NC2=O)c2cccc(C#CCOC3CCN(C[C@H]4CC[C@H](n5cc(NC(=O)c6ccn7ccc(N8C[C@@H]9C[C@H]8CO9)nc67)c(C(F)F)n5)CC4)CC3)c21 (stereo partly drawn) [I-232]	> 200 nM	> 200 nM
Cn1c(=O)n(C2CCC(=O)NC2=O)c2cccc(C#CCN3CCN(C[C@H]4CC[C@H](n5cc(NC(=O)c6cnn7cc(N8CCCCC8)cnc67)c(C(F)F)n5)CC4)CC3)c21 (stereo partly drawn) [I-233]	> 200 nM	> 200 nM
CN(C)c1cnc2c(C(=O)Nc3cn([C@H]4CC[C@H](CN5CCN(CC#Cc6cccc7c6n(C)c(=O)n7C6CCC(=O)NC6=O)CC5)CC4)nc3C(F)F)cnn2c1 (stereo partly drawn) [I-234]	> 200 nM	100 to 200 nM
Cn1c(=O)n(C2CCC(=O)NC2=O)c2cccc(C#CCN3CCN(C[C@H]4CC[C@H](n5cc(NC(=O)c6cnn7cccnc67)c(C(F)F)n5)CC4)CC3)c21 (stereo partly drawn) [I-235]	> 200 nM	10 to 100 nM
Cn1c(=O)n(C2CCC(=O)NC2=O)c2cccc(N3CCC4(CCN(C[C@H]5CC[C@H](n6cc(NC(=O)c7cnn8cccnc78)c(C(F)F)n6)CC5)CC4)CC3)c21 (stereo partly drawn) [I-236]	> 200 nM	< 10 nM
Cn1c(=O)n(C2CCC(=O)NC2=O)c2cccc(N3CCN(CC[C@H]4CC[C@H](n5cc(NC(=O)c6cnn7cccnc67)c(C(F)F)n5)CC4)CC3)c21 (stereo partly drawn) [I-237]	> 200 nM	10 to 100 nM
Cn1c(=O)n(C2CCC(=O)NC2=O)c2cccc(CN3CCN(C[C@H]4CC[C@H](n5cc(NC(=O)c6cnn7cccnc67)c(C(F)F)n5)CC4)CC3)c21 (stereo partly drawn) [I-238]	> 200 nM	> 200 nM
Cn1c(=O)n(C2CCC(=O)NC2=O)c2cccc(N3CCC(CO[C@H]4CC[C@H](n5cc(NC(=O)c6cnn7cccnc67)c(C(F)F)n5)CC4)CC3)c21 (stereo partly drawn) [I-239]	> 200 nM	> 200 nM

Structure (SMILES)	DC50 [1]	DC50 [2]
Cn1c(=O)n(C2CCC(=O)NC2=O)c2cccc(N3CCC(OC[C@H]4CC[C@H](n5cc(NC(=O)c6cnn7cccnc67)c(C(F)F)n5)CC4)CC3)c21 (stereo partly drawn) [I-240]	> 200 nM	> 200 nM
C[C@@H]([C@H]1CC[C@H](n2cc(NC(=O)c3cnn4cccnc34)c(C(F)F)n2)CC1)N(C)C1CCN(c2cccc3c2n(C)c(=O)n3C2CCC(=O)NC2=O)CC1 (stereo partly drawn) [I-241]	> 200 nM	100 to 200 nM
CN(C1CCN(c2cccc3c2n(C)c(=O)n3C2CCC(=O)NC2=O)CC1)[C@@H](C#N)[C@H]1CC[C@H](n2cc(NC(=O)c3cnn4cccnc34)c(C(F)F)n2)CC1 (stereo partly drawn) [I-242]	> 200 nM	> 200 nM
CC(C)Oc1ccn2ncc(C(=O)Nc3cn([C@H]4CC[C@H](CN5CCN(CC#Cc6cccc7c6n(C)c(=O)n7C6CCC(=O)NC6=O)CC5)CC4)nc3C(F)F)c2n1 (stereo partly drawn) [I-243]	> 200 nM	> 200 nM
Cn1c(=O)n(C2CCC(=O)NC2=O)c2cccc(C#CCN3CCN(C[C@H]4CC[C@H](n5cc(NC(=O)c6cnn7ccc(OC8CCC8)nc67)c(C(F)F)n5)CC4)CC3)c21 (stereo partly drawn) [I-244]	> 200 nM	> 200 nM
Cn1c(=O)n(C2CCC(=O)NC2=O)c2cccc(C#CCN3CCN(C[C@H]4CC[C@H](n5cc(NC(=O)c6cnn7ccc(OC8CCCC8)nc67)c(C(F)F)n5)CC4)CC3)c21 (stereo partly drawn) [I-245]	> 200 nM	10 to 100 nM
Cn1c(=O)n(C2CCC(=O)NC2=O)c2cccc(C#CCN3CCN(C[C@H]4CC[C@H](n5cc(NC(=O)c6cnn7ccc(OC8CCCCC8)nc67)c(C(F)F)n5)CC4)CC3)c21 (stereo partly drawn) [I-246]	> 200 nM	> 200 nM
COc1cc2nn([C@H]3CC[C@H](CN4CCC5(CC4)CCN(c4cccc6c4n(C)c(=O)n6C4CCC(=O)NC4=O)CC5)CC3)cc2cc1NC(=O)c1cc(F)cc(C#N)c1 (stereo partly drawn) [I-247]	> 200 nM	< 10 nM
O=C1CCC(c2cccc3c(C#CCOC4CCN(C[C@H]5CC[C@H](n6cc(NC(=O)c7cnn8ccc(N9C[C@H]%10C[C@@H]9CO%10)nc78)c(C(F)F)n6)CC5)CC4)cccc23)C(=O)N1 (stereo partly drawn) [I-248]	> 200 nM	10 to 100 nM
O=C1CCC(c2cncc3c(C#CCOC4CCN(C[C@H]5CC[C@H](n6cc(NC(=O)c7cnn8ccc(N9C[C@H]%10C[C@@H]9CO%10)nc78)c(C(F)F)n6)CC5)CC4)cccc23)C(=O)N1 (stereo partly drawn) [I-249]	> 200 nM	> 200 nM
O=C1CCC(c2cccc3c(C#CCN4CCN(C[C@H]5CC[C@@H](n6cc(NC(=O)c7cnn8ccc(N9C[C@H]%10C[C@@H]9CO%10)nc78)c(C(F)F)n6)CC5)CC4)cccc23)C(=O)N1 (stereo partly drawn) [I-250]	> 200 nM	10 to 100 nM
O=C1CCC(c2cncc3c(C#CCN4CCN(C[C@H]5CC[C@@H](n6cc(NC(=O)c7cnn8ccc(N9C[C@H]%10C[C@@H]9CO%10)nc78)c(C(F)F)n6)CC5)CC4)cccc23)C(=O)N1 (stereo partly drawn) [I-251]	> 200 nM	> 200 nM
COc1cc2nn([C@H]3CC[C@H](CN4CCC5(CC4)CCN(c4cccc6c(C7CCC(=O)NC7=O)cccc46)CC5)CC3)cc2cc1NC(=O)c1cncc(C#N)c1 (stereo partly drawn) [I-252]	> 200 nM	10 to 100 nM
COc1cc2nn([C@H]3CC[C@H](CN4CCC5(CC4)CCN(c4cccc6c(C7CCC(=O)NC7=O)cncc46)CC5)CC3)cc2cc1NC(=O)c1cncc(C#N)c1 (stereo partly drawn) [I-253]	> 200 nM	> 200 nM
COc1cc2nn([C@H]3CC[C@H](CN4CCC5(CC4)CCN(c4ccc(Cl)c(N6CCC(=O)NC6=O)c4)CC5)CC3)cc2cc1NC(=O)c1cncc(C#N)c1 [I-254]	> 200 nM	> 200 nM
COc1cc2nn([C@H]3CC[C@H](CN4CCC5(CC4)CCN(c4ccc(Cl)c(C6CCC(=O)NC6=O)c4)CC5)CC3)cc2cc1NC(=O)c1cncc(C#N)c1 (stereo partly drawn) [I-255]	> 200 nM	> 200 nM
O=C1CCN(c2cc(C#CCOC3CCN(C[C@H]4CC[C@H](n5cc(NC(=O)c6cnn7ccc(N8C[C@H]9C[C@@H]8CO9)nc67)c(C(F)F)n5)CC4)CC3)ccc2Cl)C(=O)N1 [I-256]	> 200 nM	> 200 nM
O=C1CCC(c2cc(C#CCOC3CCN(C[C@H]4CC[C@H](n5cc(NC(=O)c6cnn7ccc(N8C[C@H]9C[C@@H]8CO9)nc67)c(C(F)F)n5)CC4)CC3)ccc2Cl)C(=O)N1 (stereo partly drawn) [I-257]	> 200 nM	> 200 nM
O=C1CCN(c2cc(C#CCN3CCN(C[C@H]4CC[C@@H](n5cc(NC(=O)c6cnn7ccc(N8C[C@H]9C[C@@H]8CO9)nc67)c(C(F)F)n5)CC4)CC3)ccc2Cl)C(=O)N1 [I-258]	> 200 nM	> 200 nM
